# The source made the active and inactive calls. The calls are words filed in the database; no cut-off is given here.
# Assays:
# [1] = in vitro; conditions: rat, plasma
# Description: Protein binding in rat plasma assessed as free fraction at 5 uM incubated for 5 hrs by equilibrium dialysis method
# [2] = physchem; conditions: Fasted State Simulated Intestinal Fluid
# Description: Thermodynamic solubility of the compound in Fasted State Simulated Intestinal Fluid
# [3] = in vivo; conditions: CD-1, mouse, po, 10 mg/kg
# [4] = biological target: Phosphatidylinositol 3-kinase catalytic subunit type 3 (Homo sapiens, UniProt Q8NEB9)
# Description: Inhibition of VPS34 (unknown origin) by ADP-Glo assay
# [5] = in vivo; conditions: CD-1, mouse, po, 30 mg/kg
# [6] = in vivo; conditions: Sprague-Dawley, rat, po, 10 mg/kg
# [7] = physchem; conditions: Simulated Gastric Fluid
# Description: Thermodynamic solubility of the compound in Simulated Gastric Fluid
# [8] = in vitro; conditions: human, plasma
# Description: Protein binding in human plasma assessed as free fraction at 5 uM incubated for 5 hrs by equilibrium dialysis method
# [9] = in vitro; conditions: dog, hepatocytes
# Description: Intrinsic clearance in dog hepatocytes
# [10] = in vivo; conditions: Beagle, dog, po, 10 mg/kg
# [11] = in vivo; conditions: cynomolgus monkey, iv, 1 mg/kg
# Description: Half life in cynomolgus monkey at 1 mg/kg, iv
# [12] = biological target: T1, Cytochrome P450 3A4 (Homo sapiens, UniProt P08684)
# [13] = in vivo; conditions: Sprague-Dawley, rat, iv, 1 mg/kg
# [14] = in vitro; conditions: human, Caco-2
# Description: Apparent permeability of the compound across basolateral to apical side in human Caco-2 cells at 10 uM
# [15] = in vitro; conditions: human, CCD-18Co cells
# Description: Cytotoxicity against human CCD-18Co cells assessed as inhibition of cell growth incubated for 7 days by CellTiter-Glo 2.0 assay
# [16] = tested on: NCI-H23; experiment: cells; conditions: Homo sapiens
# Description: Antiproliferative activity against human NCI-H23 cells assessed as inhibition of cell growth incubated for 7 days by CellTiter-Glo 2.0 assay
# [17] = physchem; conditions: Fed State Simulated Intestinal Fluid
# Description: Thermodynamic solubility of the compound in Fed State Simulated Intestinal Fluid
# [18] = in vivo; conditions: CD-1, mouse, po, 10 mg/kg; remark: listed apart in the source
# [19] = biological target: Cytochrome P450 2C9 (Homo sapiens, UniProt P11712)
# [20] = in vitro; conditions: dog, plasma
# Description: Protein binding in dog plasma assessed as free fraction at 5 uM incubated for 5 hrs by equilibrium dialysis method
# [21] = in vitro; conditions: human, Caco-2; remark: listed apart in the source
# Description: Apparent permeability of the compound across apical to basolateral side in human Caco-2 cells at 10 uM
# [22] = in vivo; conditions: Sprague-Dawley, rat, po, 10 mg/kg; remark: listed apart in the source
# [23] = biological target: Phosphatidylinositol 4,5-bisphosphate 3-kinase catalytic subunit beta isoform (Homo sapiens, UniProt P42338)
# Description: Inhibition of PI3Kbeta (unknown origin) by ADP-Glo assay
# [24] = biological target: T1, Cytochrome P450 3A4; remark: listed apart in the source
# [25] = in vivo; conditions: CD-1, mouse, po, 30 mg/kg; remark: listed apart in the source
# [26] = organism: Mus musculus; conditions: CD-1, dose 30-50 mg/kg, route po, time 4.0 hrs
# [27] = in vivo; conditions: CD-1, mouse, po, 10 mg/kg; remark: listed apart in the source
# [28] = biological target: Serine/threonine-protein kinase mTOR (Homo sapiens, UniProt P42345)
# Description: Inhibition of mTOR (unknown origin) by LANCE Ultra assay
# [29] = in vivo; conditions: CD-1, mouse, po, 10 mg/kg; remark: listed apart in the source
# [30] = in vivo; conditions: cynomolgus monkey, iv, 1 mg/kg; remark: listed apart in the source
# Description: Volume of distribution at steady state in cynomolgus monkey at 1 mg/kg, iv
# [31] = in vivo; conditions: cynomolgus monkey, po, 10 mg/kg
# [32] = tested on: Granta-519; experiment: cells; conditions: Homo sapiens
# Description: Antiproliferative activity against human Granta-519 cells assessed as inhibition of cell growth incubated for 7 days by CellTiter-Glo 2.0 assay
# [33] = physchem; conditions: octanol/phosphate buffer, pH 7.4
# Description: Lipophilicity, log D of the compound in octanol/phosphate buffer at pH 7.4 by shake flask method
# T1 sequence (P08684 whole entry): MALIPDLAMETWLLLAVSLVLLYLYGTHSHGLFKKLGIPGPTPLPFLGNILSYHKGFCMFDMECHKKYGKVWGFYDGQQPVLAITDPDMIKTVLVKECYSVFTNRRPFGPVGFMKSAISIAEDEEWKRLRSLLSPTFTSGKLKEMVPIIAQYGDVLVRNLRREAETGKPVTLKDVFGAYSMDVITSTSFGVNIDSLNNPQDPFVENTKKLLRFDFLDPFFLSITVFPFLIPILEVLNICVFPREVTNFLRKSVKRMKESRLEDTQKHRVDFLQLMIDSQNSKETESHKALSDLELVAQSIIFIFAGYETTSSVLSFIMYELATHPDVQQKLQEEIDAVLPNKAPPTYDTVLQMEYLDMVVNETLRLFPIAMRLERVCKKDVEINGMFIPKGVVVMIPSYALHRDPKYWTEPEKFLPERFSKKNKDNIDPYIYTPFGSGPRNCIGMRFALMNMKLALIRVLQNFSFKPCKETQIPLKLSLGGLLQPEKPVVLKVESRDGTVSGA
# Chain of Phosphatidylinositol 4,5-bisphosphate 3-kinase catalytic subunit beta isoform (P42338 whole entry, canonical isoform): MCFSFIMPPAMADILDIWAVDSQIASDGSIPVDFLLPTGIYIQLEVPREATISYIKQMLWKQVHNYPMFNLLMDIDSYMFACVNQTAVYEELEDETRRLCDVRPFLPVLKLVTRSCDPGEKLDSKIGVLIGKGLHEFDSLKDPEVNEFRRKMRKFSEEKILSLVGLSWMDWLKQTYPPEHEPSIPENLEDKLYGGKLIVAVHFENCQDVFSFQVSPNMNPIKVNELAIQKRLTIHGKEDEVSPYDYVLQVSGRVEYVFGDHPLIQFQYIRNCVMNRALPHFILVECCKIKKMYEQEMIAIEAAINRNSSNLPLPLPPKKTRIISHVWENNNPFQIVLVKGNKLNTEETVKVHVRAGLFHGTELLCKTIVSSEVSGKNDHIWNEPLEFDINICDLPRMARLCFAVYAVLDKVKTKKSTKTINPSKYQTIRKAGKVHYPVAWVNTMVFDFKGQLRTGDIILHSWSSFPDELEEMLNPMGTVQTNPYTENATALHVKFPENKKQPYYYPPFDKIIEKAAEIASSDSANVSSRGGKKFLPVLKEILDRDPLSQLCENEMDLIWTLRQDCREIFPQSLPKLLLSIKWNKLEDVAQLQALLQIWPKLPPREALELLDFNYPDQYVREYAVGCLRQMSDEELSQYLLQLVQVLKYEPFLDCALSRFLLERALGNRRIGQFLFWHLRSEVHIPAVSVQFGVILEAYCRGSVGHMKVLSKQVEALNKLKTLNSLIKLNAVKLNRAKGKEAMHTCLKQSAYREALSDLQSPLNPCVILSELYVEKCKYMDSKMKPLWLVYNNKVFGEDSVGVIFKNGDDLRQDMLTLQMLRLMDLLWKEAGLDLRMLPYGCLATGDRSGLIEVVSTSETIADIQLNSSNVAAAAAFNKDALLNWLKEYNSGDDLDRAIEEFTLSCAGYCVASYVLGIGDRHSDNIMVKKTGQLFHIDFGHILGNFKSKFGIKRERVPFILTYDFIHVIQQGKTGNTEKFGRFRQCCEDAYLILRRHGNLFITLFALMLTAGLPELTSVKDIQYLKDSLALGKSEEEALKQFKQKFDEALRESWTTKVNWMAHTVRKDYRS
# Chain of Phosphatidylinositol 3-kinase catalytic subunit type 3 (Q8NEB9 whole entry): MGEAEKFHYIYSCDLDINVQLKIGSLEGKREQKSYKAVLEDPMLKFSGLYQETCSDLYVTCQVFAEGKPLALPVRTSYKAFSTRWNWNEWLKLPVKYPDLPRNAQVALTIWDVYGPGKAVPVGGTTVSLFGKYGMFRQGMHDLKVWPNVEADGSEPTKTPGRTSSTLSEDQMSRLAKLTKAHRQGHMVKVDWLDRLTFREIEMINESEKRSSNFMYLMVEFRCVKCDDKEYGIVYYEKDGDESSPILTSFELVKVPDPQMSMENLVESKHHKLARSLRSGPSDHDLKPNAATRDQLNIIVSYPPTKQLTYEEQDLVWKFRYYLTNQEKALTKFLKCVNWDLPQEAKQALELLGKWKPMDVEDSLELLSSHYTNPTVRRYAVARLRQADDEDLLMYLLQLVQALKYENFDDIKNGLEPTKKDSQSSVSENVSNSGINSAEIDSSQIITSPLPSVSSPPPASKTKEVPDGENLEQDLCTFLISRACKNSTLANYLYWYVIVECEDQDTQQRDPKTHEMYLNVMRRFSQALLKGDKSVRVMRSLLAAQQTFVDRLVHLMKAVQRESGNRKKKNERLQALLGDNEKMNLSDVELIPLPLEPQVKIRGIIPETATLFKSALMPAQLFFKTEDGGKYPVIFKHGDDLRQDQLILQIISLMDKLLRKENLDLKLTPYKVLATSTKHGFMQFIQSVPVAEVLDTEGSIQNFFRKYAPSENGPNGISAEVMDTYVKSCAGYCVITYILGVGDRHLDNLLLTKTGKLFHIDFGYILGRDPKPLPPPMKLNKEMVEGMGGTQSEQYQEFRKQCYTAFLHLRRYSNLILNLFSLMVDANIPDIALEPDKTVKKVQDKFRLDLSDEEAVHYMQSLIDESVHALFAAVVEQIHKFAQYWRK
# Chain of Cytochrome P450 2C9 (P11712 whole entry): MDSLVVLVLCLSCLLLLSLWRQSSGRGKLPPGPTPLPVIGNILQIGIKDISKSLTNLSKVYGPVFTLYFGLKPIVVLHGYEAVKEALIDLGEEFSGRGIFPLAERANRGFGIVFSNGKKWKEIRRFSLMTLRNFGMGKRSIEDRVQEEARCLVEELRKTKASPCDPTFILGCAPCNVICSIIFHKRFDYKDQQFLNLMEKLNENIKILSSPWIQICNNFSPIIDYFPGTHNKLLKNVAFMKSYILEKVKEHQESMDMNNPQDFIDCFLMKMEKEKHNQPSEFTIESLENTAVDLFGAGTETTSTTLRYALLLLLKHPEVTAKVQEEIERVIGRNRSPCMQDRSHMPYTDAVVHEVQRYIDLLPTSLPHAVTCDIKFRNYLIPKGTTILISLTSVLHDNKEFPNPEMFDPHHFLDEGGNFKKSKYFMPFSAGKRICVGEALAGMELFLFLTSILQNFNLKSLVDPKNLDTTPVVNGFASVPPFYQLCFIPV
structure (smiles),measurement,setting,value
C[C@@H]1COCCN1c1cc(N=[S@@](C)(=O)C2CC2)nc(-c2ccnc(N)c2)n1,"fraction unbound at 5 h, 5 µM",[1],0.48
same,solubility thermodynamic,[2],1600 µg/mL
same,Cmax,[3],3160 nM
same,IC50,[4],> 50 µM
same,Tmax,[5],15 min
same,bioavailability,[6],58%
same,solubility thermodynamic,[7],> 13000 µg/mL
same,"fraction unbound at 5 h, 5 µM",[8],0.45
same,CLint scaled,[9],6 mL/min/kg
same,Cmax,[10],1930 nM
same,half-life,[11],78 min
same,IC50,[12],> 10 µM
same,Vd,[13],3.9 L/kg
same,Papp B→A at 10 µM,[14],34 ×10⁻⁶ cm/s
same,EC50 at 7 days,[15],6.92 µM
same,EC50,[16],0.14 µM
same,solubility thermodynamic,[17],> 5000 µg/mL
same,AUC(0-t),[18],4.25 µM·h
same,IC50,[19],> 10 µM
same,"fraction unbound at 5 h, 5 µM",[20],0.55
same,Papp A→B at 10 µM,[21],17 ×10⁻⁶ cm/s
same,Tmax,[22],11.4 min
same,IC50,[23],> 50 µM
same,IC50,[24],> 10 µM
same,AUC(0-t),[25],25.3 µM·h
same,inhibition,[26],Active
same,Tmax,[27],15 min
same,IC50,[28],0.968 µM
same,bioavailability,[29],77%
same,Vd,[30],2 L/kg
same,Cmax,[31],40 nM
same,EC50,[32],0.448 µM
same,logD,[33],1.62

# From ChEMBL document CHEMBL6087433, “Discovery of ART0380, a Potent and Selective ATR Kinase Inhibitor Undergoing Phase 2 Clinical Studies for the Treatment of Advanced or Metastatic Solid Cancers” (J Med Chem, 2024)
